Patent US12171768B2, “IRAK4 degraders and uses thereof” (priority 2021, dated 2024)
“Also recorded” adds a separate entry of the source. Read-outs that look alike come from different tables or passages of the source.

Experiments:
Permeability = type: in vitro ADME
[1] = Excretion study in bile duct-cannulated (BDC) rats; type: in vivo
[2] = test system: R848- or LPS-mediated induction of pro-inflammatory cytokines in whole blood; test: Phase 1 SAD ex vivo proinflammatory cytokine induction by R848 and LPS in whole blood; set-up: species or system human; settings: for Mean maximum percent change from baseline, IFNγ / Mean maximum percent change from baseline, IL1β / Mean maximum percent change from baseline, IL6 / Mean maximum percent change from baseline, IL8 / Mean maximum percent change from baseline, IL10 / Mean maximum percent change from baseline, IL12 / Mean maximum percent change from baseline, IL17 / Mean maximum percent change from baseline, TNFα: Cohort 7
[3] = Phase 1 SAD plasma pharmacokinetics; type: in vivo, human; settings: for Tmax: healthy volunteers
Description: Initially, a dose range of Compound A in single ascending dose (SAD) escalation cohorts will be explored in adult HVs (Part A). […] Safety and PK data from at least 3 completed SAD cohorts will determine initiation of and appropriate doses for the 14-day multiple ascending dose (MAD) portion of the study (Part B).
The graphical assessment of dose proportionality will be performed for AUC and Cmax. Relative bioavailability of food effect will be assessed based on AUC and Cmax.

[4] = test system: MSU-crystal induced inflammation; test: Mouse air pouch model of MSU-crystal induced (TLR 2/4-dependent) inflammation; type: in vivo; settings: 3 days twice daily, 30 to 100 mg/kg
[5] = test system: TLR agonist (lipopolysaccharide and R848) and IL-1β-induced proinflammatory cytokine production; test: In vitro cytokine release assays in PBMCs; type: cell-based; settings: LPS
[6] = Distribution studies in rats; type: in vivo
Solubility = type: physicochemical
[7] = test system: ex vivo proinflammatory cytokine induction by R848 and LPS in whole blood; test: Phase 1 MAD ex vivo proinflammatory cytokine induction by R848 and LPS in whole blood; set-up: species or system human; settings: Day 7-14, daily up to about 200 mg
Description: In some embodiments, the cytokines include IFN-γ, IL-12, IL-1β, IL-10, IL-6, TNF-α, IL-8, IL-17, and IL-23.

IRAK4 [8] = molecular target: T1, IRAK4 (Rattus norvegicus, UniProt A0A8I6G1H3); test: In vitro IRAK4 degradation in rat splenocytes; type: cell-based; settings: read-out: DC50, IRAK4 degradation
T1 construct: endogenous in cells; host or cells: rat splenocytes

IRAK4 [9] = molecular target: T2, IRAK4 (Canis lupus familiaris, UniProt A0A8I3S726); test: In vitro IRAK4 degradation in dog PBMCs; type: cell-based; settings: read-out: DC50, IRAK4 degradation
T2 construct: endogenous in cells; host or cells: dog PBMCs (A3); PBMCs and skin of dosed dogs (A12)
T2 sequence (A0A8I3S726 1-460): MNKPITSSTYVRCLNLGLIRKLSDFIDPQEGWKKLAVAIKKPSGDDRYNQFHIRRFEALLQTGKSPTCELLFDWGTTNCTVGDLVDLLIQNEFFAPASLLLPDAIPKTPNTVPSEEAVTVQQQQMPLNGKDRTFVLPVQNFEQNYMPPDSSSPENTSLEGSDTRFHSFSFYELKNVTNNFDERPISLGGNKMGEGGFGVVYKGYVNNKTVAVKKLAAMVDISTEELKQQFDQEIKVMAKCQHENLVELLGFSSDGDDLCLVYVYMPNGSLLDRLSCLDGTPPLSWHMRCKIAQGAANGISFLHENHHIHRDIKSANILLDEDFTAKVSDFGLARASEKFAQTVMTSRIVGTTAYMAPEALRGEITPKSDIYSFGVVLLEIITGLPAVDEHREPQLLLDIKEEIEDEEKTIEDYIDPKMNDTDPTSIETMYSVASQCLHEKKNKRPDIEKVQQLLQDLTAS

Plasma protein binding = type: in vitro ADME; settings: across nonclinical species and humans
CYP2C19 = CYP2C19 (Homo sapiens, UniProt P33261); test: In vitro drug-drug interaction study, CYP2C19; type: in vitro ADME
[10] = molecular target: T3, breast cancer resistance protein (BCRP) (Homo sapiens, UniProt Q9UNQ0); test: BCRP substrate and efflux inhibition in vitro; type: in vitro ADME
T3 sequence (Q9UNQ0 1-655): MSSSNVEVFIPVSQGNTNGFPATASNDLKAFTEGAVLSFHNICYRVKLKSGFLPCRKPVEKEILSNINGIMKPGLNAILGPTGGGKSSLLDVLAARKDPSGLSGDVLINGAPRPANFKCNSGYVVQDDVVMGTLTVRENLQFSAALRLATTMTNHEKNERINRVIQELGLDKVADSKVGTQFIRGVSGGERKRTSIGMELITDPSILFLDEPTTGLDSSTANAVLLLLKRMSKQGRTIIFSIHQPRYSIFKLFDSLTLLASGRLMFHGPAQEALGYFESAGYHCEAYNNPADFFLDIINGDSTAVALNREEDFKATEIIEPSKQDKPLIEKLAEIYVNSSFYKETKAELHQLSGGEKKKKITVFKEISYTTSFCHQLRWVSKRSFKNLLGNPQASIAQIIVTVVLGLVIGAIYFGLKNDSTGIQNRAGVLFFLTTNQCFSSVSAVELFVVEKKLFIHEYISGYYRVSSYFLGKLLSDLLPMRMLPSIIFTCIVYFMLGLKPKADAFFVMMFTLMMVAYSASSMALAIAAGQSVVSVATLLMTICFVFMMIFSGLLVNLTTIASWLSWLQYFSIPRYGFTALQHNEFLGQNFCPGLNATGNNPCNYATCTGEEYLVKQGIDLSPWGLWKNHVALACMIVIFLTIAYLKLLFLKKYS

T1 sequence (A0A8I6G1H3 1-461): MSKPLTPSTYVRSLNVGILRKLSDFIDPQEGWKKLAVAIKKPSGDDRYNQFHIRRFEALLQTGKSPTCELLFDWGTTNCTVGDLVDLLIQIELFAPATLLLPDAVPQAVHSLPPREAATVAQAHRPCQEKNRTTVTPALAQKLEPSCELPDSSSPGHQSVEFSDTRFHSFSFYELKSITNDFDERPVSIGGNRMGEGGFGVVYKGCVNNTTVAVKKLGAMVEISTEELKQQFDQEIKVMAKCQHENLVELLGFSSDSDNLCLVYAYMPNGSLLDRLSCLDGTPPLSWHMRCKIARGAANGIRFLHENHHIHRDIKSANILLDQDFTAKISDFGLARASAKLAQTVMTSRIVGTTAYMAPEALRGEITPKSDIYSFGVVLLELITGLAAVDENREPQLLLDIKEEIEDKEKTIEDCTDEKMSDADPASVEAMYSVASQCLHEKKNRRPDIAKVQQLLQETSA
Chain of CYP2C19 (P33261 whole entry): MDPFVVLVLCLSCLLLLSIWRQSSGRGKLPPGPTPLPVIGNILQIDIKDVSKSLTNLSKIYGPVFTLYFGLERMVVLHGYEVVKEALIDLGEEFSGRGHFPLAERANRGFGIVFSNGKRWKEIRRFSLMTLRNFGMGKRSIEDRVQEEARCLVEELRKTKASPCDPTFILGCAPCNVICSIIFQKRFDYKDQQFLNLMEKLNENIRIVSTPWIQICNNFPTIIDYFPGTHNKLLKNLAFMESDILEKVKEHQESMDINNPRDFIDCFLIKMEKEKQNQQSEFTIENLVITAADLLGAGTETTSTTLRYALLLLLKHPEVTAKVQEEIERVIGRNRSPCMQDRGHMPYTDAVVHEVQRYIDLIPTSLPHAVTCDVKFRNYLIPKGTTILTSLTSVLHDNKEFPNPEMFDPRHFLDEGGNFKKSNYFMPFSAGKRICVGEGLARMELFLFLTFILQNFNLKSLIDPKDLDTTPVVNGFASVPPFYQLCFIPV

SMILES: Cn1c(=O)n([C@@H]2CCC(=O)NC2=O)c2cccc(C#CCOC3CCN(C[C@H]4CC[C@H](n5cc(NC(=O)c6cnn7ccc(N8C[C@H]9C[C@@H]8CO9)nc67)c(C(F)F)n5)CC4)CC3)c21 [Compound A, 5-((1R,4R)-2-oxa-5-azabicyclo[2.2.1]heptan-5-yl)-N-(3-(difluoromethyl)-1-((1r,4R)-4-((4-((3-(1-(2,6-dioxopiperidin-3-yl)-3-methyl-2-oxo-2,3-dihydro-1H-benzo[d]imidazol-4-yl)prop-2-yn-1-yl)oxy)piperidin-1-yl)methyl)cyclohexyl)-1H-pyrazol-4-yl)pyrazolo[1,5-a]pyrimidine-3-carboxamide]
- Permeability (Permeability): moderate; also recorded: medium
- Biliary and intestinal excretion as parent drug [1]: minor to moderate
- Renal clearance [1]: negligible
- Mean maximum ex vivo cytokine inhibition ([2]; 24-48 h post-dose, LPS or R848, whole blood): up to 97%
- Mean maximum percent change from baseline, IFNγ ([2]; LPS, 24-48 hours): −42%^
- Mean maximum percent change from baseline, IL1β ([2]; LPS, 24-48 hours): −68%^1
- Mean maximum percent change from baseline, IL6 ([2]; LPS, 24-48 hours): −62%^1
- Mean maximum percent change from baseline, IL8 ([2]; LPS, 24-48 hours): −81%^1
- Mean maximum percent change from baseline, IL10 ([2]; LPS, 24-48 hours): −83%^1
- Mean maximum percent change from baseline, IL12 ([2]; LPS, 24-48 hours): −35%^2
- Mean maximum percent change from baseline, IL17 ([2]; LPS, 24-48 hours): −43%^2
- Mean maximum percent change from baseline, TNFα ([2]; LPS, 24-48 hours): −42%^2
- Mean maximum percent change from baseline, IFNγ ([2]; R848, 24-48 hours): −97%^2
- Mean maximum percent change from baseline, IL1β ([2]; R848, 24-48 hours): −92%^1
- Mean maximum percent change from baseline, IL6 ([2]; R848, 24-48 hours): −88%^1
- Mean maximum percent change from baseline, IL8 ([2]; R848, 24-48 hours): −54%^
- Mean maximum percent change from baseline, IL10 ([2]; R848, 24-48 hours): −89%^1
- Mean maximum percent change from baseline, IL12 ([2]; R848, 24-48 hours): −93%^1
- Mean maximum percent change from baseline, IL17 ([2]; R848, 24-48 hours): −79%^1
- Mean maximum percent change from baseline, TNFα ([2]; R848, 24-48 hours): −88%^2
- Dose-dependent plasma exposures ([3]; SAD): plateaued after 1000 mg
- half-life ([3]; human, plasma, oral, after single dosing, across SAD cohorts): 25 to 40 h
- Tmax ([3]; human, plasma, SAD 1, single oral dose 25 mg): 8 h
- Tmax ([3]; human, plasma, SAD 2, single oral dose 75 mg): 7 h
- Tmax ([3]; human, plasma, SAD 3, single oral dose 150 mg): 9 h
- Tmax ([3]; human, plasma, SAD 4, single oral dose 300 mg): 8 h
- Tmax ([3]; human, plasma, SAD 6, single oral dose 1000 mg): 20 h
- IRAK4 levels in the spleen [4]: significantly reduced
- Inflammatory exudate, including neutrophils and IL-1β [4]: significantly reduced
- IC50, inhibition of proinflammatory cytokine production (IL-6, TNF-α, GM-CSF, IL-8) [5]: low nM range
- Penetration into the central nervous system (CNS) [6]: limited penetration
- Tissue distribution [6]: extensively distributed into tissues
- BCS classification (tentative) (Solubility): BCS II
- solubility (Solubility): low
- solubility (Solubility; FaSSIF, pH 6.5, fassif, read-out: Solubility in bio-relevant fluid FaSSIF): < 12000 µg/mL
- solubility (Solubility; aqueous media, aqueous buffer, across the physiological pH range, read-out: Aqueous solubility): ≤ 3000 µg/mL
- Inhibition of IFN-γ in whole blood [7]: up to 85%
- DC50 (IRAK4 [8]): < 10 nM
- DC50 (IRAK4 [9]): < 10 nM
- Plasma protein binding (Plasma protein binding): highly bound
- Inhibition of CYP2C19 (CYP2C19): potential time dependent inhibition
- BCRP efflux inhibition [10]: inhibited BCRP efflux
- BCRP substrate [10]: substrate
